This assay deals with B16F0 melanoma cells. In words: Transfection activity in B16F0 melanoma cells. Type of assay: cell-based. To be noted: in the absence of helper lipid DOPE. The text has this: FIG. 2 Transfection activity of 1,3lb3 and other commercially available cationic lipids in B16F0 melanoma cells. Lif/d stands for Lipofectamine/DOPE. The data are the average of six wells two independent experiments (n=3×2).
FIG. 3 Transfection activity of 1,3lb3 (in the absence of DOPE) -a dipalmitoyl analogue with fluid lamellar phases at physiological pH and temperature-against B16F0 tumor melanoma cells. The plasmid DNA consisted of an EGFP reporter gene driven by the SV40 early promoter, cloned into a pUC21 vector (CloneTech Labs).
FIG. 8 Transfection activity as tested by X-gal of cationic lipids against B16F0 melanoma cells in the absence of serum. The (+/−) ratio is fixed to 2. A. lb1 B. lb2 C. lb3 D. lb4 E. lb5

Regarding `CCCCCCCCCCCCCCCC(=O)NCC(CNC(=O)CCCCCCCCCCCCCCC)OC(=O)N(CCN(C)C)CCN(C)C` [13lb3, N,N′-dihexadecanoyl-1,3-diaminopropyl-2-carbamoyl-[bis-(2-dimethylaminoethane)]], the Transfection activity entry is recorded as “efficient transfection activity”.

The values are drawn from patent US20050095280A1, “Single-component pH-sensitive liposomes of reduced solid-to-liquid phase transition temperatures” (Michalakis Savva, priority 2003, published 2005).
